# Measurements: ChEMBL document CHEMBL3045394, “Synthesis and antiinflammatory activity of certain benzothieno[3,2-d][1,2,4]triazolo[4,3-b] pyridazine derivatives” (2012)
# Tested on: Rattus norvegicus
# Experiment: Anti-inflammatory activity inRattus norvegicus albino (rat) assessed as inhibition of carageenaan-induced paw edema at 10 mg/kg, po administered 1 hr prior to carrageenan-challenge measured after 4 hr relative to control
row,Structure (SMILES),inhibition in vivo at 10 mg/kg [%]
1,NNc1nn2cnnc2c2c1sc1c(Br)cccc12,52.8
2,COc1ccccc1-c1nnc2c3c(sc4c(Br)cccc43)c(N3CCCCC3)nn12,8.4
3,COc1ccc2c(c1)c(CC(=O)O)c(C)n2C(=O)c1ccc(Cl)cc1 [INDOMETHACIN],50.5
4,Oc1nn2cnnc2c2c1sc1c(Br)cccc12,9.7
5,COc1ccccc1-c1nnc2c3c(sc4c(Br)cccc43)c(NN)nn12,78.7
